In ChEMBL document CHEMBL4177723, “Histone H3 peptides incorporating modified lysine residues as lysine-specific demethylase 1 inhibitors” (Bioorg Med Chem Lett, 2018):
pIC50: −log10 of the molar value.

What was measured:
[1] = molecular target: Lysine-specific histone demethylase 1A (Homo sapiens, UniProt O60341)
[2] = molecular target: T1, Amine oxidase [flavin-containing] A (Homo sapiens, UniProt P21397)
T1 sequence (P21397 whole entry): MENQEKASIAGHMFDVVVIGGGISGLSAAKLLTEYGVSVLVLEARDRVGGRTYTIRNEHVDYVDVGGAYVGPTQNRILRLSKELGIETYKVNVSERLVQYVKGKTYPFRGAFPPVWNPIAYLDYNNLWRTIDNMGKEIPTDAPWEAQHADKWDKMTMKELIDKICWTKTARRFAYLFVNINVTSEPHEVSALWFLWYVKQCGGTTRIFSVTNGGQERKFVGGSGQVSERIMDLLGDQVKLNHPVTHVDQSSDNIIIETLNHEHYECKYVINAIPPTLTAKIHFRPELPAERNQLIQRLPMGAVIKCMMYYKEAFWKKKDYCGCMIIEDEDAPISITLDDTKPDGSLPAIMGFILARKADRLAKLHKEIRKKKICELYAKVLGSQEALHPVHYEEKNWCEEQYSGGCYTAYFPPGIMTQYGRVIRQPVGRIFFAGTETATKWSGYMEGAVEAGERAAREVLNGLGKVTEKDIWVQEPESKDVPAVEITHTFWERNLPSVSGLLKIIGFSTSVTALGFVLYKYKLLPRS

[3] = molecular target: T2, Amine oxidase [flavin-containing] B (Homo sapiens, UniProt P27338)
T2 sequence (P27338 whole entry): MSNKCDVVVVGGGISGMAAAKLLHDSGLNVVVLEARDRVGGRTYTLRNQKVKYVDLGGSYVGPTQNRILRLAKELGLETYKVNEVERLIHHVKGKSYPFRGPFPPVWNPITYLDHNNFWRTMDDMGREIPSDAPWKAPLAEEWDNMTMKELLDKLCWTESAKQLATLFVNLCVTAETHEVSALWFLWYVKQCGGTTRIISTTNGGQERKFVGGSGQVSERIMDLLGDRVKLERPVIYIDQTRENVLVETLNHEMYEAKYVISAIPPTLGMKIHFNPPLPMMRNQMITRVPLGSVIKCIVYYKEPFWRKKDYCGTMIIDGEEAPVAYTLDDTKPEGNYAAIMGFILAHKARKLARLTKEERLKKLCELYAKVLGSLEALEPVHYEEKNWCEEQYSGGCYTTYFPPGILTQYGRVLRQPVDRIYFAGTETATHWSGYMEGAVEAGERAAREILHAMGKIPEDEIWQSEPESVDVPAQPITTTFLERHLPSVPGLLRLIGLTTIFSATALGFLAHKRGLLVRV

SMILES: C[C@H](N)C(=O)N[C@@H](CCCNC(=N)N)C(=O)N[C@H](C(=O)N[C@@H](CCCCN[C@@H]1C[C@H]1c1ccccc1)C(=O)N[C@@H](CCC(N)=O)C(=O)N[C@H](C(=O)N[C@@H](C)C(=O)N[C@@H](CCCNC(=N)N)C(=O)N[C@@H](CCCCN)C(=O)N[C@@H](CO)C(=O)N[C@H](C(=O)O)[C@@H](C)O)[C@@H](C)O)[C@@H](C)O
- pIC50 [1]: 6.81
- pIC50 [2]: < 5.00
- pIC50 [3]: < 5.00
